Assay results published in patent US20260355212A1 (priority 2022, published 2026).
Where two headings read alike, the source gives them in different places.

Tests used:
HCoV-OC43 Mpro = HCoV-OC43 Mpro (Human coronavirus OC43, UniProt P0C6X6); assay: HCoV-OC43 Mpro enzymatic inhibition assay (fluorescence); type: biochemical
In short: (§1)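 Steps: compound dilution series (3-fold, 10 doses) dispensed; Mpro added and pre-incubated 30 min at room temperature; substrate added; plates incubated 60 min at 30 °C; fluorescence measured at Ex/Em=340 nm/490 nm.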

HCoV-NL63 Mpro = HCoV-NL63 Mpro (Human coronavirus NL63, UniProt P0C6X5); assay: HCoV-NL63 Mpro enzymatic inhibition assay (fluorescence); type: biochemical
In short: as §1

HCoV-229E Mpro = HCoV-229E Mpro (Human coronavirus 229E, UniProt P0C6X1); assay: HCoV-229E Mpro enzymatic inhibition assay (fluorescence); type: biochemical
SARS-CoV-1 Mpro = SARS-CoV-1 Mpro (Severe acute respiratory syndrome coronavirus, UniProt P0C6X7); assay: biochemical
HCoV-HKU1 Mpro = HCoV-HKU1 Mpro (Human coronavirus HKU1, UniProt P0C6X2); assay: HCoV-HKU1 Mpro enzymatic inhibition assay (fluorescence); type: biochemical
In short: as §1

MERS Mpro = MERS Mpro (Middle East respiratory syndrome-related coronavirus, UniProt K9N7C7); assay: biochemical; set-up: species or system MERS-CoV
SARS-CoV-2 Mpro = SARS-CoV-2 Mpro (Severe acute respiratory syndrome coronavirus 2, UniProt P0DTD1); assay: SARS-CoV-2 Mpro enzymatic inhibition assay (fluorescence); type: biochemical
In short: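 Recombinant Mpro expressed in E. coli was preincubated 30 min at room temperature with 10-point, 3-fold serially diluted compound in duplicate. Fluorogenic substrate was then added and incubated 60 min at 30° C, and fluorescence read at Ex/Em 340/490 nm. IC50 came from a four-parameter fit of % inhibition.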

[1] = mean, 25 nM protein, 25 μM substrate, 30 min pre-incubation, 60 min at 30° C., read-out: Mpro_SARS-CoV-2 mean IC50

Chain of HCoV-229E Mpro (P0C6X1 2966-3267 limits assumed): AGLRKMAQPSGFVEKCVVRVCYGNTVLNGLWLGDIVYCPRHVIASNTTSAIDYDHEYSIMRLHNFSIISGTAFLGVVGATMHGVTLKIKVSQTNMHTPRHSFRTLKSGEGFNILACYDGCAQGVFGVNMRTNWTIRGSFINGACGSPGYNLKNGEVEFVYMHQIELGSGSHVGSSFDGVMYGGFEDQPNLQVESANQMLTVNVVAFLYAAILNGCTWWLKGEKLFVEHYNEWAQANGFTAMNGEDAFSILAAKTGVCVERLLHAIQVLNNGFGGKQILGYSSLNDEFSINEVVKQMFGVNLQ
Chain of HCoV-OC43 Mpro (P0C6X6 3247-3549 limits assumed): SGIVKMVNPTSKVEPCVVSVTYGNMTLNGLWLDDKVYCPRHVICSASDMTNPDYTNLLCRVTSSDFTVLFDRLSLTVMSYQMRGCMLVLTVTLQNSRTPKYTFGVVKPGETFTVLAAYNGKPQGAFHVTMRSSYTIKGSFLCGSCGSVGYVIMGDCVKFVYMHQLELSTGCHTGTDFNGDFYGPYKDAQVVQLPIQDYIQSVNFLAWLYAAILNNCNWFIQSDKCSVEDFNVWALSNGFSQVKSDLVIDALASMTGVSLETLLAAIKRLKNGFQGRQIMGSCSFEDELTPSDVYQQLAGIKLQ
Chain of HCoV-HKU1 Mpro (P0C6X2 3335-3637 limits assumed): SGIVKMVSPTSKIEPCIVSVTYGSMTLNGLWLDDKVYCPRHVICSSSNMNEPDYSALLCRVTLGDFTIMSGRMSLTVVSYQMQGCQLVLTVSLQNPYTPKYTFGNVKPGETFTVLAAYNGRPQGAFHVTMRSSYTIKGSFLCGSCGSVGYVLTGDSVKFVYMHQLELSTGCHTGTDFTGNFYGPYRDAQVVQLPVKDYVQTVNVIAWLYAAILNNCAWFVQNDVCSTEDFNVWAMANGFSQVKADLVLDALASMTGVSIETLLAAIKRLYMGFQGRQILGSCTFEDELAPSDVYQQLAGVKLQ
Chain of MERS Mpro (K9N7C7 3248-3553 limits assumed): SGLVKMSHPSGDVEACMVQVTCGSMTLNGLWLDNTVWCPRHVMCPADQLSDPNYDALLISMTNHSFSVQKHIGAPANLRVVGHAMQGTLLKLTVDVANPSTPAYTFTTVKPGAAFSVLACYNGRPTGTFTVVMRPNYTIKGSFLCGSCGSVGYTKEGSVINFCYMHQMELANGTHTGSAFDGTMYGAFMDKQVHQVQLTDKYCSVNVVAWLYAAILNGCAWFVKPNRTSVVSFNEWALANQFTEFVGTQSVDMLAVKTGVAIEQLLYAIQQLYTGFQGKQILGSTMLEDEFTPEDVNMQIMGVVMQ
Chain of HCoV-NL63 Mpro (P0C6X5 2940-3242 limits assumed): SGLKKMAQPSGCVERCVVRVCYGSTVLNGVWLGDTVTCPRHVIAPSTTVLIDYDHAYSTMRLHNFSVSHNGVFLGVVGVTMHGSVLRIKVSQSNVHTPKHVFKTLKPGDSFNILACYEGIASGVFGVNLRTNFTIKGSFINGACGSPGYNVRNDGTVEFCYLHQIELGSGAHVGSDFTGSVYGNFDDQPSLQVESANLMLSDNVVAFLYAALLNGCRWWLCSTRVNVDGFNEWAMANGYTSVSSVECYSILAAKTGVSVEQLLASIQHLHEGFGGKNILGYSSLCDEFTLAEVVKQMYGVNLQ

SMILES	IC50 (HCoV-OC43 Mpro) [nM]	IC50 (HCoV-NL63 Mpro) [nM]	IC50 (HCoV-229E Mpro) [nM]	IC50 (SARS-CoV-1 Mpro) [nM]	IC50 (HCoV-HKU1 Mpro) [nM]	IC50 (MERS Mpro) [nM]	IC50 (SARS-CoV-2 Mpro) [nM]	IC50 (HCoV-OC43 Mpro; mean, 25 nM protein, 12.5 μM substrate, 30 min pre-incubation, 60 min at 30° C., read-out: Mpro_OC43 mean IC50) [nM]	IC50 (HCoV-NL63 Mpro; mean, 50 nM protein, 12.5 μM substrate, 30 min pre-incubation, 60 min at 30° C., read-out: Mpro_NL63 mean IC50) [nM]	IC50 (HCoV-229E Mpro; mean, 50 nM protein, 12.5 μM substrate, 30 min pre-incubation, 60 min at 30° C., read-out: Mpro_229E mean IC50) [nM]	IC50 (HCoV-HKU1 Mpro; mean, 12.5 nM protein, 12.5 μM substrate, 30 min pre-incubation, 60 min at 30° C., read-out: Mpro_HKU1 mean IC50) [nM]	IC50 (SARS-CoV-2 Mpro; [1]) [nM]
Cc1cccc2c1cc(C(=O)N1C[C@H]3[C@@H]([C@H]1C(=O)N[C@H](C=O)C[C@@H]1CCNC1=O)C3(C)C)n2C [Compound 118, (1R,2S,5S)-3-(1,4-Dimethylindole-2-carbonyl)-N-[(1S)-1-formyl-2-[(3S)-2-oxopyrrolidin-3-yl]ethyl]-6,6-dimethyl-3-azabicyclo[3.1.0]hexane-2-carboxamide]	436	1780	325	349	324	3290	127					
Cc1cccc([C@@H](C)C(=O)N2C[C@H]3[C@@H]([C@H]2C(=O)N[C@H](C#N)C[C@@H]2CCNC2=O)C3(C)C)c1 [Compound 120]				196		1130		567	1400	299	193	151
CO[C@@H]1C[C@@H](C(=O)N[C@H](C=O)C[C@@H]2CCNC2=O)N(C(=O)c2cc3ccccc3[nH]2)C1 [Compound 121, (2S,4R)-1-(1H-Indole-2-carbonyl)-4-methoxy-N—((S)-1-oxo-3-((S)-2-oxopyrrolidin-3-yl)propan-2-yl)pyrrolidine-2-carboxamide]	825	198	152	294	546	2630	159					
CC1(C)[C@@H]2[C@@H](C(=O)N[C@H](C=O)C[C@@H]3CCNC3=O)N(C(=O)c3[nH]c4ccccc4c3-c3ccccc3)C[C@@H]21 [Compound 122, (1R,2S,5S)-6,6-Dimethyl-N—((S)-1-oxo-3-((S)-2-oxopyrrolidin-3-yl)propan-2-yl)-3-(3-phenyl-1H-indole-2-carbonyl)-3-azabicyclo[3.1.0]hexane-2-carboxamide]	423	1020	172	234	366	1550	162					
CC1(C)[C@@H]2[C@@H](C(=O)N[C@H](C#N)C[C@@H]3CCNC3=O)N(C(=O)C3(c4cccc(Cl)c4)CC3)C[C@@H]21 [Compound 123, (1R,2S,5S)-3-(1-(3-Chlorophenyl)cyclopropanecarbonyl)-N—((S)-1-cyano-2-((S)-2-oxopyrrolidin-3-yl)ethyl)-6,6-dimethyl-3-azabicyclo[3.1.0]hexane-2-carboxamide]	419	2110	459	224	185	1180						178
CC1(C)[C@@H]2[C@@H](C(=O)N[C@H](C=O)C[C@@H]3CCNC3=O)N(C(=O)C3CCCC3)C[C@@H]21 [Compound 124, (1R,2S,5S)-3-(Cyclopentanecarbonyl)-6,6-dimethyl-N—((S)-1-oxo-3-((S)-2-oxopyrrolidin-3-yl)propan-2-yl)-3-azabicyclo[3.1.0]hexane-2-carboxamide]	490	2500	162	473	407	2000						211
O=C[C@H](C[C@@H]1CCNC1=O)NC(=O)[C@@H]1C[C@@H]2C[C@@H]2N1C(=O)c1cc2ccccc2[nH]1 [Compound 125, (1S,3S,5S)-2-(1H-Indole-2-carbonyl)-N—((S)-1-oxo-3-((S)-2-oxopyrrolidin-3-yl)propan-2-yl)-2-azabicyclo[3.1.0]hexane-3-carboxamide]	284	218	116	685	154	916	228					
O=C[C@H](C[C@@H]1CCNC1=O)NC(=O)[C@@H]1CC2(CC2)CN1C(=O)CC1CCCCC1 [Compound 126, (S)-5-(2-Cyclohexylacetyl)-N—((S)-1-oxo-3-((S)-2-oxopyrrolidin-3-yl)propan-2-yl)-5-azaspiro[2.4]heptane-6-carboxamide]	112	97.7	56.3	84.5	38.4	358	231					
O=C1NCC[C@H]1C[C@H](NC(=O)[C@@H]1CC2(CC2)CN1C(=O)c1cc2ccccc2[nH]1)C(=O)c1nc2ccccc2s1 [Compound 127, (S)—N—((S)-1-(benzo[d]thiazol-2-yl)-1-oxo-3-((S)-2-oxopyrrolidin-3-yl)propan-2-yl)-5-(1H-indole-2-carbonyl)-5-azaspiro[2.4]heptane-6-carboxamide]	507	195	95.1	600	372	409	261					
CC1(C)[C@@H]2[C@@H](C(=O)N[C@H](C#N)C[C@@H]3CCNC3=O)N(C(=O)c3cc4c(F)ccc(Cl)c4[nH]3)C[C@@H]21 [Compound 128, (1R,2S,5S)-3-(7-Chloro-4-fluoro-1H-indole-2-carbonyl)-N—((S)-1-cyano-2-((S)-2-oxopyrrolidin-3-yl)ethyl)-6,6-dimethyl-3-azabicyclo[3.1.0]hexane-2-carboxamide]	1990	3980	1230	788	1900	5580	318					
O=C[C@H](C[C@@H]1CCNC1=O)NC(=O)[C@@H]1C[C@@H]2CCC[C@@H]2N1C(=O)c1cc2ccccc2[nH]1 [Compound 129, (2S,3aS,6aS)-1-(1H-Indole-2-carbonyl)-N—((S)-1-oxo-3-((S)-2-oxopyrrolidin-3-yl)propan-2-yl)octahydrocyclopenta[b]pyrrole-2-carboxamide]	166	51	38	874	76	1110	351					
O=C[C@H](C[C@@H]1CCNC1=O)NC(=O)[C@@H]1[C@H]2C[C@H]2CN1C(=O)c1cc2ccccc2[nH]1 [Compound 130, (1S,2S,5R)-3-(1H-Indole-2-carbonyl)-N—((S)-1-oxo-3-((S)-2-oxopyrrolidin-3-yl)propan-2-yl)-3-azabicyclo[3.1.0]hexane-2-carboxamide]	398	130	191	832	87.4	838	372					
CC(C)c1ccc(F)c2[nH]c(C(=O)N3C[C@H]4[C@@H]([C@H]3C(=O)N[C@H](C#N)C[C@@H]3CCNC3=O)C4(C)C)cc12 [Compound 131, (1R,2S,5S)—N—((S)-1-Cyano-2-((S)-2-oxopyrrolidin-3-yl)ethyl)-3-(7-fluoro-4-isopropyl-1H-indole-2-carbonyl)-6,6-dimethyl-3-azabicyclo[3.1.0]hexane-2-carboxamide]	1540	1590	690	772	1140	9760	401					
CC1(C)[C@@H]2[C@@H](C(=O)N[C@H](C#N)C[C@@H]3CCNC3=O)N(C(=O)c3cc4cccc(Cl)c4[nH]3)C[C@@H]21 [Compound 132, (1R,2S,5S)-3-(7-Chloro-1H-indole-2-carbonyl)-N—((S)-1-cyano-2-((S)-2-oxopyrrolidin-3-yl)ethyl)-6,6-dimethyl-3-azabicyclo[3.1.0]hexane-2-carboxamide]	3010	3970	1210	873	1910	5440	434					
CC1(C)[C@@H]2[C@@H](C(=O)N[C@H](C#N)C[C@@H]3CCNC3=O)N(C(=O)C3(c4ccccc4)CC3)C[C@@H]21 [Compound 135, (1R,2S,5S)—N—((S)-1-Cyano-2-((S)-2-oxopyrrolidin-3-yl)ethyl)-6,6-dimethyl-3-(1-phenylcyclopropanecarbonyl)-3-azabicyclo[3.1.0]hexane-2-carboxamide]	1870	11800	3460	571	766	4540	468					
CC1(C)[C@@H]2[C@@H](C(=O)N[C@H](C#N)C[C@@H]3CCNC3=O)N(C(=O)C3(c4ccccc4)CCCC3)C[C@@H]21 [Compound 136, (1R,2S,5S)—N—((S)-1-Cyano-2-((S)-2-oxopyrrolidin-3-yl)ethyl)-6,6-dimethyl-3-(1-phenylcyclopentanecarbonyl)-3-azabicyclo[3.1.0]hexane-2-carboxamide]	3980	13900	3050	767	1630	8410	470					
